Data taken from paper PMC12399242 (Acta Pharmaceutica Sinica. B, 2025).
Read-outs that look alike come from different tables or passages of the source.

Legend:
HIV-1 K103N = assay: Antiviral activity against HIV-1 mutant K103N in MT-4 cells; type: cell-based; conditions: Human immunodeficiency virus 1, MT4, read-out: EC50 K103N
HIV-1 L100I = assay: Antiviral activity against HIV-1 mutant L100I in MT-4 cells; type: cell-based; conditions: Human immunodeficiency virus 1, MT4, read-out: EC50 L100I
HIV-1 E138K = assay: Antiviral activity against HIV-1 mutant E138K in MT-4 cells; type: cell-based; conditions: Human immunodeficiency virus 1, MT4, read-out: EC50 E138K
HIV-1 F227L + V106A = assay: microbe, parasite or virus in culture; type: cell-based; conditions: Human immunodeficiency virus 1, MT4, read-out: EC50 F227L + V106A
HIV-1 Y188L = assay: Antiviral activity against HIV-1 mutant Y188L in MT-4 cells; type: cell-based; conditions: Human immunodeficiency virus 1, MT4, read-out: EC50 Y188L
HIV-1 Y181C = assay: Antiviral activity against HIV-1 mutant Y181C in MT-4 cells; type: cell-based; conditions: Human immunodeficiency virus 1, MT4, read-out: EC50 Y181C
[1] = test system: HIV-1 K103N + Y181C (RES056); assay: Antiviral activity against HIV-1 double mutant K103N + Y181C (RES056) in MT-4 cells; type: cell-based; conditions: Human immunodeficiency virus 1, MT4, read-out: EC50 K103N + Y181C
WT HIV-1 RT = WT HIV-1 RT (Human immunodeficiency virus type 1 group M subtype B, UniProt P03366); assay: Inhibition of WT HIV-1 RT polymerase activity
Description: The anti-HIV-1 activity of A1–A24 and B1–B22 at the cellular or enzyme level were evaluated following our previously reported method[15].

HIV-1 (IIIB) [2] = assay: microbe, parasite or virus in culture; type: cell-based; conditions: for SI (IIIB): selectivity index, ratio CC50/EC50; for EC50: mean ± SD, n ≥ 3
Description: (§1) Inspired by our previous research on heteroaromatic-biphenyl-DAPYs[15], the 4-cyanophenyl group on the biphenyl moiety was replaced with a privileged 4-pyridyl group for further evaluation.

in vitro = conditions: human, CC50
Description: as §1

HIV-1 (IIIB) [3] = conditions: earlier compounds of Fig. 1 / introduction, cited from earlier work
[4] = Human immunodeficiency virus 1, IIIB, MT4, WT HIV-1, protection of MT-4 cells against HIV-induced cytopathogenicity

Row | SMILES | EC50 (HIV-1 K103N) [µM] | EC50 (HIV-1 L100I) [µM] | EC50 (HIV-1 E138K) [µM] | EC50 (HIV-1 F227L + V106A) [µM] | EC50 (HIV-1 Y188L) [µM] | EC50 (HIV-1 Y181C) [µM] | EC50 [1] [µM] | IC50 (WT HIV-1 RT) [µM] | SI (IIIB) (HIV-1 (IIIB) [2]) | CC50 (in vitro) [µM] | EC50 (HIV-1 (IIIB) [2]; [4]) [µM] | EC50 (HIV-1 (IIIB) [2]; WT HIV-1, protection of MT-4 cells against HIV-induced cytopathogenicity) [µM] | EC50 (HIV-1 (IIIB) [3]; WT HIV-1) [µM] | SI (HIV-1 (IIIB) [3])
1 | Cc1cc(-c2ccc(C#N)cc2)ccc1Nc1nc(Nc2ccc(C#N)cc2)ncc1F [A9, 4′-((2-((4-Cyanophenyl)amino)-5-fluoropyrimidin-4-yl)amino)-3′-methyl-[1,1′-biphenyl]-4-carbonitrile] | 0.0071 ± 0.0019 | 0.017 ± 0.0067 | 0.01 ± 0.0019 | 37.7 | 1.62 ± 0.382 | 0.0093 ± 0.0007 | 24.9 | 0.036 ± 0.0048 |  |  |  |  |  | 
2 | N#Cc1ccc(Nc2ncc(F)c(Nc3c(F)cc(-c4ccc(C#N)cc4)cc3F)n2)cc1 [A11, 4′-((2-((4-Cyanophenyl)amino)-5-fluoropyrimidin-4-yl)amino)-3′,5′-difluoro-[1,1′-biphenyl]-4-carbonitrile] | 0.005 ± 0.0011 | 0.01 ± 0.0029 | 0.0025 ± 0.0007 | > 45.2 | > 45.2 | 0.0081 ± 0.002 | > 45.2 | 0.027 ± 0.0023 | >40,000 | > 45 |  |  |  | 
3 | Cc1cc(-c2ccncc2)cc(C)c1Nc1nc(Nc2ccc(C#N)cc2)ncc1F [A24, 4-((4-((2,6-Dimethyl-4-(pyridin-4-yl)phenyl)amino)-5-fluoropyrimidin-2-yl)amino)benzonitrile] | 0.0019 ± 0.0005 | 0.0041 ± 0.0037 | 0.0083 ± 0.0054 | 0.244 ± 0.146 | 0.09 ± 0.027 | 0.0093 ± 0.0056 | 0.063 ± 0.012 | 0.039 ± 0.0024 |  |  |  |  |  | 
4 | N#Cc1ccc(Nc2ncc(Cl)c(Nc3c(F)cc(-c4ccc(C#N)cc4)cc3F)n2)cc1 [B10, 4′-((5-Chloro-2-((4-cyanophenyl)amino)pyrimidin-4-yl)amino)-3′,5′-difluoro-[1,1′-biphenyl]-4-carbonitrile] | 0.005 ± 0.0024 | 0.017 ± 0.0081 | 0.0057 ± 0.0028 | 0.959 ± 0.327 | 0.187 ± 0.052 | 0.011 ± 0.0015 | 0.676 ± 0.349 | 0.031 ± 0.0022 |  |  |  |  |  | 
5 | Cc1cc(-c2ccc(C#N)cc2)cc(C)c1Nc1nc(Nc2ccc(C#N)cc2)ncc1Cl [B11, 4′-((5-Chloro-2-((4-cyanophenyl)amino)pyrimidin-4-yl)amino)-3′,5′-dimethyl-[1,1′-biphenyl]-4-carbonitrile] | 0.0044 ± 0.0011 | 0.0055 ± 0.0018 | 0.012 ± 0.0069 | 0.164 ± 0.071 | 0.033 ± 0.0067 | 0.0098 ± 0.0033 | 0.102 ± 0.024 | 0.053 | 47,357 |  | ≤ 0.0053 | 0.0053 ± 0.0018 |  | 
6 | Cc1cc(-c2ccncc2)ccc1Nc1nc(Nc2ccc(C#N)cc2)ncc1Cl [B19, 4-((5-Chloro-4-((2-methyl-4-(pyridin-4-yl)phenyl)amino)pyrimidin-2-yl)amino)benzonitrile] |  |  |  |  |  |  |  |  | >1122 | > 48 | 0.044 ± 0.0097 |  |  | 
7 | COc1cc(-c2ccncc2)ccc1Nc1nc(Nc2ccc(C#N)cc2)ncc1Cl [B20, 4-((5-Chloro-4-((2-methoxy-4-(pyridin-4-yl)phenyl)amino)pyrimidin-2-yl)amino)benzonitrile] |  |  |  |  |  |  |  |  | 306 | 164 ± 51 | 0.536 ± 0.326 |  |  | 
8 | N#Cc1ccc(Nc2ncc(Cl)c(Nc3c(F)cc(-c4ccncc4)cc3F)n2)cc1 [B21, 4-((5-Chloro-4-((2,6-difluoro-4-(pyridin-4-yl)phenyl)amino)pyrimidin-2-yl)amino)benzonitrile] |  |  |  |  |  |  |  |  | 680 | 1.3 ± 0.3 | 0.002 ± 0.0007 |  |  | 
9 | Cc1cc(-c2ccncc2)cc(C)c1Nc1nc(Nc2ccc(C#N)cc2)ncc1Cl [B22, 4-((5-Chloro-4-((2,6-dimethyl-4-(pyridin-4-yl)phenyl)amino)pyrimidin-2-yl)amino)benzonitrile] |  |  |  |  |  |  |  |  | 29,634 | 260 ± 6.5 | 0.0089 ± 0.0007 |  |  | 
10 | Cc1cc(-c2ccc(C#N)cc2)cc(C)c1Nc1ccnc(Nc2ccc(C#N)cc2)n1 [compound 3] |  |  |  |  |  |  |  |  |  |  |  |  | 0.001 | 2,059
